Results published in the NIST ThermoML archive (doi:10.1021/je034290l).

Key:
[1] = refractive index (Na D-line) (dimensionless); details: 318.15 K; 101.33 kPa; Liquid; Standard Abbe refractometry
[2] = Liquid; for mass density: 318.15 K, 101.33 kPa

CCC(=O)OC [methyl propanoate]
Details	mass density [kg/m3]	refractive index
[1]	–	1.3641
[2]	884.3	–

[2]
Details	vapor or sublimation pressure [kPa]
325.88 K	40.08
327.07 K	42.57
328.03 K	44.13
329 K	45.29
329.68 K	46.72
330.24 K	47.97
330.7 K	49.34
332 K	50.58
332.74 K	51.89
333.19 K	53.37
334.04 K	54.63
334.49 K	55.93
335.63 K	57.49
335.97 K	58.57
336.7 K	60.05
337.5 K	61.5
338.06 K	62.73
338.52 K	64.17
339.43 K	66.58
339.71 K	67.89
340.73 K	69.17
341.07 K	70.53
341.52 K	71.89
341.72 K	72.42
342.35 K	73.37
342.6 K	75.37
342.88 K	75.83
343.25 K	75.91
343.95 K	77.99
344.15 K	78.43
344.25 K	78.74
344.75 K	79.89
345.4 K	82.35
345.65 K	82.59
346.32 K	84.18
346.57 K	85.43
346.65 K	86.74
347.23 K	87.87
347.4 K	88.1
348.15 K	90.74
348.73 K	91.95
348.98 K	93.23
349.23 K	94.6
349.73 K	96.03
350.23 K	97.26
350.59 K	98.7
350.99 K	100
351.65 K	101.32
352.23 K	102.75
352.4 K	103.87
352.82 K	105.43
352.9 K	106.58
353.73 K	107.82
353.82 K	109.39
354.15 K	110.78
354.57 K	112.07
354.82 K	113.15
355.65 K	114.82
355.74 K	115.9
355.82 K	117.13
356.32 K	118.57
356.9 K	120.15
357.15 K	121.17
357.39 K	122.81
357.9 K	123.81
358.24 K	124.65
358.48 K	126.73
358.65 K	127.87
358.98 K	129.37
359.32 K	130.43
359.48 K	130.89
359.98 K	133.25
360.4 K	134.57
360.57 K	135.81
361.08 K	137.35
361.4 K	138.56
361.73 K	140
361.9 K	141.21
362.44 K	142.57
362.57 K	144.11
363.07 K	145.35
363.4 K	146.48
363.73 K	148.09
363.91 K	149.39
364.4 K	151.04
364.57 K	152.48
364.9 K	153.26
364.99 K	154.82
365.38 K	156.06
365.48 K	156.17
365.82 K	158.49
365.9 K	159.73
366.15 K	160.57
366.57 K	162.57
366.65 K	163.38
367.15 K	165.17
367.4 K	166.74
367.82 K	167.89

CCCC(=O)OC [methyl butanoate]
Details	mass density [kg/m3]	refractive index
[1]	–	1.3753
[2]	870.24	–

[2]
Details	vapor or sublimation pressure [kPa]
347.53 K	40.12
348.26 K	41.24
349.21 K	42.76
349.79 K	43.84
350.81 K	45.25
351.98 K	46.74
352.34 K	47.92
353.21 K	49.41
353.72 K	50.85
354.96 K	51.83
355.26 K	53.5
356.06 K	54.82
356.79 K	55.89
357.44 K	57.38
358.24 K	58.61
358.9 K	60.02
359.7 K	61.42
360.43 K	62.63
360.93 K	64.13
362.03 K	66.54
362.31 K	68.03
363.2 K	69.42
363.49 K	70.61
363.78 K	71.18
365.02 K	73.5
365.38 K	74.77
365.97 K	75.89
366.41 K	77.39
366.84 K	78.61
367.57 K	80.14
368.01 K	81.39
368.59 K	82.57
369.25 K	83.91
369.95 K	85.71
370.19 K	86.58
370.49 K	87.94
371.07 K	88.35
371.72 K	90.8
371.79 K	92.1
372.31 K	93.26
372.89 K	94.59
373.47 K	95.92
373.84 K	97.46
374.57 K	99.14
374.77 K	100.04
375.24 K	101.32
375.37 K	102.58
375.81 K	104.06
376.02 K	105.47
376.39 K	106.5
376.97 K	107.92
377.55 K	109.23
378.14 K	110.58
378.36 K	112.15
378.79 K	113.36
378.94 K	114.67
379.3 K	115.84
379.67 K	117.27
380.03 K	118.72
380.69 K	120.15
381.2 K	121.36
381.56 K	122.59
381.64 K	124.01
381.85 K	125.24
382.22 K	126.48
382.73 K	127.91
382.95 K	129.4
383.6 K	130.75
383.68 K	132.15
384.33 K	133.49
384.77 K	134.91
384.84 K	135.92
385.06 K	137.27
385.35 K	138.45
385.72 K	140.01
386.06 K	141.27
386.74 K	142.63
386.84 K	144.13
387.1 K	145.37
387.47 K	146.49
387.61 K	147.69
387.98 K	149.24
388.41 K	150.57
388.92 K	151.94
389.02 K	153.4
389.36 K	154.57
390.02 K	156.49
390.16 K	157.37
390.36 K	158.7
390.53 K	160.05
390.89 K	161.18
391.07 K	162.57
391.55 K	163.94
391.98 K	165.7
392.2 K	166.69
